Patent publication US4687773A, “(+)-N-N-propylnorapomorphine and selective limbic activity” (priority 1985, dated 1987)
Like-named read-outs stand apart in the source and are kept apart here.

What was measured:
Dopamine Receptors [1] = assay type: binding, calf; conditions: ligand [3H]APO (0.5 nM)
Dopamine Receptors [2] = assay type: binding, calf; conditions: ligand [3H]ADTN (0.5 nM)
[3] = system: dopamine (DA) receptors in the basal ganglia (corpus striatum); assay: Stereotyped licking and gnawing behavior rating in the rat; assay type: in vivo
Description: Stereotypy: The mean stereotyped licking and gnawing behavioral rating scheme developed by Tarsy and Baldessarini^8 was used. […]
Stereotypy scores were rated for one hour as described in […]

[4] = system: dopamine (DA) receptors in the limbic system and basal ganglia; assay: Total motor activity, electronic activity monitor (EAM); assay type: in vivo, rat
Method: (§1) Activity: Overall motor activity was measured by use of the self-recording Stoelting electronic activity monitor method described previously by Stewart, Campbell, Sperk, and Baldessarini^9. Total activity is obtained by setting monitor sensitivity so as to detect both locomotion and small movements (such as grooming, sniffing, and chewing) as would be prominent in stereotyped responses that tend to diminish locomotion and increase sniffing, licking, and chewing movements. Locomotor activity is detected selectively by setting monitor sensitivity to detect large, locomotor movements, and to minimize smaller movements already described.
(§2) All data presented in the Tables below are expressed as the mean results from 4-6 rats per condition, ±S.E.M. Stereotypy is expressed in rating units (maximum=3.0) and activity is expressed in arbitrary units of percent change, derived from EAM counts per unit time, relative to activity in control (saline) animals set at zero.
All the posttreatment doses of (+)APO were 3.0 mg/kg, s.c. The data
All posttreatment doses of (+)NPA were 3 mg/kg, s.c. The data are similar

[5] = system: dopamine (DA) receptors in the limbic system; assay: Locomotor activity (spontaneous or aroused by (-)APO / (-)NPA), electronic activity monitor; assay type: in vivo, rat
Method: as §1
Rats (mean N=6 per condition) were tested for locomotor activity for 60 min following a single dose of (-)APO (0.3 mg/kg, SC), or its vehicle ("placebo" condition). The S(+) isomers were administered in a range of doses from 0 or 0.1 to 30 mg/kg, SC immediately following injection of (-)APO or its vehicle. Data are presented in FIG. 2 as mean EAM activity counts per hour SEM. In that figure, the dashed line labeled "control" represents the mean activity of rats given vehicle only and no aporphine (SD values are indicated by parallel light lines above and below the control mean).
Test agents (11substituted-N--propylnoraporphine isomers were given at a
dose of 3 mg/kg, ip (in 2 ml/kg) just prior to (-)apomorphine (APO, at 0.
mg/kg, ip, in 1 ml/kg) to rats (N = 6) tested in an electronic activity

[6] = Catalepsy (latency to resume normal posture); assay type: in vivo, rat; conditions: s.c., maximum 18.0
Method: Catalepsy: This measure of muscle rigidity is assessed by having animals in abnormal body positions and timing their duration of maintaining these. This is done by placing rats on a wire grid placed at a 45° angle to the benchtop, or by placing their forelimbs on a raised horizontal metal bar, and timing the latency to resume a normal posture by stopwatch.
as §2

[7] = target: T1, Dopamine (DA) sensitive adenylate cyclase (Rattus norvegicus, UniProt P18901); assay: Stimulation of formation of cyclic AMP in rat striatal homogenate; assay type: biochemical
T1 construct: homogenates of rat corpus striatum; from tissue; host or cells: rat corpus striatum homogenate
T1 sequence (P18901 whole entry): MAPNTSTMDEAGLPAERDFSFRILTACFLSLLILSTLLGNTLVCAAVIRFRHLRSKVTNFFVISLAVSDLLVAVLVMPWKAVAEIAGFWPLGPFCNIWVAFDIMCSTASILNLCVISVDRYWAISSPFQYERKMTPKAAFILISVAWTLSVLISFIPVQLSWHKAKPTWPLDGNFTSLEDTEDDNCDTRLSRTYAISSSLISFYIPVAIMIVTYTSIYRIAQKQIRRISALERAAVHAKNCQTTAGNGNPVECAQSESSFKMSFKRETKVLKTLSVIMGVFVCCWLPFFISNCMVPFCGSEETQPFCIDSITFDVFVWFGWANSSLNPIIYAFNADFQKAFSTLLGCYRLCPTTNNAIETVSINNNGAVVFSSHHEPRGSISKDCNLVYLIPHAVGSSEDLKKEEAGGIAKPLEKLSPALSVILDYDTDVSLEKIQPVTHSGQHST
Description: assayed in homogenates of corpus striatum obtained from rat brain. The
method of assay of the activity of DAsensitive adenylate cyclase by the
rate of formation of cAMP above a basal (no agonist) level is described
under Experimental Section. The data are mean values of cAMP levels in […]

[8] = target: T2, rat liver catechol O-methyl-transferase (COMT) (Rattus norvegicus, UniProt P22734); assay: Isomeric substrate selectivity for rat liver COMT; assay type: biochemical
T2 construct: partially purified rat liver catechol O-methyl-transferase (COMT); from tissue; host or cells: rat liver, ammonium sulfate precipitation and dialysis
T2 sequence (P22734 1-221 isoform P22734-2): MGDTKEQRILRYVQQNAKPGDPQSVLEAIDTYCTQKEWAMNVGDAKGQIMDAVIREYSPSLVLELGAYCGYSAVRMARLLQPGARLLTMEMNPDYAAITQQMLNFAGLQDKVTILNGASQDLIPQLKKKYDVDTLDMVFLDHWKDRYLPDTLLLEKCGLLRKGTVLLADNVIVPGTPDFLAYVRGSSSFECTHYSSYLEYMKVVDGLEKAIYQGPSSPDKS

[9] = system: dopamine (DA) receptors in the limbic system; assay: Locomotor activity (spontaneous or aroused by (-)APO / (-)NPA), electronic activity monitor; assay type: in vivo, rat; remark: listed apart in the source
[10] = system: DA in the limbic system (nucleus accumbens septi); assay: Arousal (locomotor activity) induced by DA injected into nucleus accumbens septi; assay type: in vivo, rat; conditions: for activity counts (arousal induced by 16 μg DA in accumbens): 30 min, DA control 238 ± 38
Method: An experiment shown in Table 9 involves testing the effects of S(+) isomers of apomorphine (APO) and N-propylnorapomorphine (NPA) given systemically (intraperitoneally, ip), as well as S(+) methylenedioxy-N-propylnorapomorphine (MDO-NPA) given ip or orally (po, by orogastric intubation). […]. […] Activity was monitored for 30 min after injection of DA into the brain, which was done at 10 min after systemic dosing with an S(+)aporphine test compound.
Data are mean activity counts ± SEM (N = 6) for rats given DA into the
medial accumbens after pretreatment with an inhibitor of monoamine oxidas
(MA0), and monitored on EAM for 30 min (aporphine given 10 min before DA
systemicallyintraperitoneally [ip] or orally [po].

[11] = system: DA in the corpus striatum (basal ganglia); assay: Head posture (contralateral head deviation) after intrastriatal DA; assay type: in vivo, rat; conditions: intrastriatal DA 16 μg; aporphine 3 mg/kg systemic (route not given)
[12] = Table 5, (-)NPA 0.3 mg/kg + saline
[13] = Table 5, (-)NPA 3.0 mg/kg + saline
[14] = 2.5 min, read-out: cAMP production, % of control
[15] = Table 4, (+)APO 3.0 mg/kg s.c. after (-)APO 0.3 mg/kg
[16] = Table 4, (+)APO 3.0 mg/kg s.c. after (-)APO 1.0 mg/kg
[17] = Table 4, (+)APO 3.0 mg/kg s.c. after (-)APO 3.0 mg/kg
[18] = Table 4, (+)APO 3.0 mg/kg s.c., (-)APO 0

Compound: CCCN1CCc2cccc3c2C1Cc1ccc(O)c(O)c1-3 (racemic) [(±)-NPA, (RS)-N-n-Propylnorapomorphine]
- IC50 (Dopamine Receptors [1]): 5 nM
- IC50 (Dopamine Receptors [2]): 3.5 nM

Compound: CCCN1CCc2cccc3c2[C@H]1Cc1ccc(O)c(O)c1-3 [(-)NPA, (R)-N-n-propylnorapomorphine]
- Stereotypy Score ([3]; Table 1, (-) isomer 3 mg/kg, s.c., ± saline, maximum 3.0): 2.9 ± 0.1 rating units
- Stereotypy Score ([3]; Table 3, 0.1 mg/kg, s.c., maximum 3.0): 1.1 ± 0.2 rating units
- Stereotypy Score ([3]; Table 3, 0.3 mg/kg, s.c., maximum 3.0): 2.0 ± 0.3 rating units
- Stereotypy Score ([3]; Table 3, 3.0 mg/kg, s.c., maximum 3.0): 2.9 ± 0.9 rating units
- Stereotypy Score ([3]; Table 3, 5.0 mg/kg, s.c., maximum 3.0): 3.0 ± 0.0 rating units
- Stereotypy Score [3, 12]: 2.0 ± 0.2 rating units
- Stereotypy Score [3, 13]: 2.8 ± 0.4 rating units
- Total Activity ([4]; Table 3, 0.1 mg/kg, s.c.): 2.0 ± 1.8 percent change vs. placebo con
- Total Activity ([4]; Table 3, 0.3 mg/kg, s.c.): 2.1 ± 3.2 percent change vs. placebo con
- Total Activity ([4]; Table 3, 3.0 mg/kg, s.c.): 231.4 ± 37 percent change vs. placebo con
- Total Activity [4, 12]: 22.1 ± 3.7 percent change
- Total Activity [4, 13]: 231.4 ± 37 percent change
- Locomotion [5, 12]: 48.1 ± 9.2 percent change
- Catalepsy score ([6]; 0.1 mg/kg): 0.5 ± 0.2
- Catalepsy score ([6]; 3.0 mg/kg): 0.8 ± 0.3
- cAMP production ([7]; 1 μM): 3.71 ± 0.31 picomoles per 2.5 min
- cAMP production ([7]; 5 μM): 4.57 ± 0.13 picomoles per 2.5 min
- cAMP production ([7]; 10 μM): 5.34 ± 0.27 picomoles per 2.5 min
- cAMP production ([7]; 50 μM): 5.71 ± 0.24 picomoles per 2.5 min
- cAMP production ([7]; 100 μM): 5.56 ± 0.24 picomoles per 2.5 min
- cAMP formation, % of control at 1 µM [7, 14]: 150%
- cAMP formation, % of control at 5 µM [7, 14]: 184%
- cAMP formation, % of control at 10 µM [7, 14]: 215%
- cAMP formation, % of control at 50 µM [7, 14]: 230%
- cAMP formation, % of control at 100 µM [7, 14]: 224%
- IC50 (Dopamine Receptors [1]): 2.5 nM
- IC50 (Dopamine Receptors [2]): 2 nM
- Vmax (range of two experiments) ([8]; footnote range): 8.9-11.1 (pmol/assay)/h
- Vmax ([8]; mean, substrate of rat liver COMT): 10.0 (pmol/assay)/h
- Locomotion [9, 13]: 10.2 ± 6.3 percent change

Compound: CN1CCc2cccc3c2[C@@H]1Cc1ccc(O)c(O)c1-3 [(+)APO, S(+) isomers of apomorphine (APO)]
- Stereotypy Score [3, 15]: 0.89 ± 0.36 rating units
- Stereotypy Score [3, 16]: 1.92 ± 0.21 rating units
- Stereotypy Score [3, 17]: 2.93 ± 0.32 rating units
- Stereotypy Score [3, 18]: 0.32 ± 0.62 rating units
- Total Activity [4, 15]: 36.2 ± 0.92 percent change
- Total Activity [4, 16]: 44.6 ± 0.75 percent change
- Total Activity [4, 17]: 62.0 ± 0.48 percent change
- Total Activity [4, 18]: -0.62 ± 0.33 percent change
- Locomotion [5, 15]: 36.2 ± 4.3 percent change
- Locomotion [5, 17]: 42.1 ± 6.3 percent change
- Locomotion [5, 18]: -0.84 ± 0.22 percent change
- ID50 to reduce the locomotor activating actions of (-)APO ([5]; s.c., (-)APO 0.3 mg/kg): 4 mg/kg
- ID50, spontaneous locomotor arousal ([5]; spontaneous activity): > 50 mg/kg
- activity counts (arousal induced by 16 μg DA in accumbens) ([10]; 0.3 mg/kg ip): 246 ± 41 activity counts
- activity counts (arousal induced by 16 μg DA in accumbens) ([10]; 1.0 mg/kg ip): 190 ± 37 activity counts
- activity counts (arousal induced by 16 μg DA in accumbens) ([10]; 3.0 mg/kg ip): 125 ± 19 activity counts
- ED50 ([10]; Rattus norvegicus, ip, DA 16 μg in accumbens, read-out: ID50 (the source's name)): 4 mg/kg
- ID50 ([10]; ip, DA 16 μg in accumbens): 3.6 mg/kg
- Contralateral Head Deviation, Percent of Total [11]: 57.2% of Total
- Contralateral Head Deviation, Time [11]: 412 ± 53 s
- Locomotion [9, 16]: 43.0 ± 5.2 percent change
